Source: patent US12180192B2, “Modulators of THR-β and methods of use thereof” (ALIGOS THERAPEUTICS, INC., priority 2019, dated 2024)
Read-outs that look alike come from different tables or passages of the source.

Legend:
[1] = molecular target: T1, human thyroid receptor beta ligand-binding domain (LBD) (Homo sapiens, UniProt P10828); test: TR-FRET thyroid receptor beta coactivator assay (THR biochemical assay, Assay 1); conditions: for EC50: THR-beta, TR-FRET coactivator assay, read-out: Activity category Assay 1 (EC50, THR-beta agonist); for Emax / Activity category Assay 1 THRβ (Emax): Table 5, Assay 1, THRβ; for Emax: read-out: Activity category Assay 1 THRβ (Emax)
T1 construct: purchased Invitrogen
T1 sequence (P10828 217-461 limits assumed): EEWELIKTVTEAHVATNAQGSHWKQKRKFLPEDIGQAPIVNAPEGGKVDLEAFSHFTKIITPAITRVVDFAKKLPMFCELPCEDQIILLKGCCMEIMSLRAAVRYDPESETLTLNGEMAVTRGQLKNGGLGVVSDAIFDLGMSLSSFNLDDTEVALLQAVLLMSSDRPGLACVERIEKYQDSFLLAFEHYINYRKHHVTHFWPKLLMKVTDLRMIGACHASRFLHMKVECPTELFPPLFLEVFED
Method in brief: (§1)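 GST-tagged human TRβ or TRα LBD, 1 nM final (stated for β), with fluorescein-SRC2-2 coactivator peptide (200 nM) and Tb-anti-GST antibody (2 nM). Agonists serially diluted, 1% DMSO final. 1 h incubation at rt in the dark; TR-FRET read as rise in fluorescein and drop in terbium emission.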

[2] = tested on: CPT1A gene expression in Huh-7 cells; test: Huh-7 differential gene expression, CPT1A RT-qPCR (Assay 3); format: cell-based; conditions: Table 6, Huh-7 cells, CPT1A, 24 hr treatment; for EC50: read-out: Activity category Assay 3 EC50; for Emax: read-out: Activity category Assay 3 Emax
Method: Huh-7 Differential Gene Expression (Assay 3)
Fetal bovine serum (FBS) was incubated with washed resin (50 mg resin/mL FBS; resin weight is dry weight of resin prior to washing) for 5 hr at room temperature on a rotor. The FBS was separated from the resin via centrifugation and incubated with new, washed resin for 18 h at room temperature on a rotor.
Cell Culture and Drug Treatment
Huh-7 cells were cultured in DMEM (10-013-CM, Corning) supplemented with 10% FBS and 1% Pen-Strep at 37° C. under 5% C02. When 70-80% confluence was reached, the cells were removed by trypsinization. The medium was aspirated from the cell culture dish, the cell monolayer was washed with 1×PBS, and 0.05% trypsin, 0.53 mM EDTA (25-052-CV, Corning) solution was added to the dish. After 3 min incubation, the cells were detached completely by repeatedly pipetting solution onto the monolayer. Equal volume of DMEM supplemented with 10% rFBS and 1% Pen-Strep (TH-depleted DMEM) was added to the dish to inactivate the trypsin. The cell suspension was centrifuged at 350×g at room temperature for 3 min. The supernatant was aspirated out and the cell pellet was resuspended in TH-depleted DMEM. […] After 24 hr incubation, the media was replaced with treatment media. All compounds were serially diluted in DMSO and final concentrations were reached by dilution in TH-depleted DMEM (0.1% DMSO). The cells were incubated in treatment media for 24 hr. Treatments were performed in biological duplicates.
After 24 hr in treatment media, the cells were lysed directly on the culture plates and cDNA was produced using the TaqMan™ Fast Advanced Cells-to-CT™ Kit (A35374, Invitrogen) and following the manufacturer's protocol. RT-qPCR for CPT1A (Hs00912671_m1) and two housekeeping genes, ACTB (Hs01060665_g1) and TFG (Hs02832013_g1), was performed using TaqMan™ Fast Advanced Master Mix. RT-qPCR reactions were run on the qTOWER^3 84 G (Analytik Jena) in technical duplicates.
ΔRn values were obtained from the qPCRsoft384 1.0 software and CPT1A gene expression was quantified via the 2-ΔΔCt method. Dose-response curves were generated using GraphPad Prism 8 using four parameter logistic equation without top constraint to derive EC50 and Emax.

[3] = molecular target: T2, human thyroid receptor alpha ligand-binding domain (LBD) (Homo sapiens, UniProt P10827); test: TR-FRET thyroid receptor alpha coactivator assay (THR biochemical assay, Assay 1); conditions: for EC50: Table 4, THR-alpha, read-out: Activity category Assay 1 (EC50, THR-alpha agonist activity); for Emax / Activity category Assay 1 THRα (Emax): Table 5, THRα; for Emax: read-out: Activity category Assay 1 THRα (Emax)
T2 construct: purchased Invitrogen
Method in brief: as §1

T2 sequence (P10827 163-410 isoform P10827-2 limits assumed, other chains not shown): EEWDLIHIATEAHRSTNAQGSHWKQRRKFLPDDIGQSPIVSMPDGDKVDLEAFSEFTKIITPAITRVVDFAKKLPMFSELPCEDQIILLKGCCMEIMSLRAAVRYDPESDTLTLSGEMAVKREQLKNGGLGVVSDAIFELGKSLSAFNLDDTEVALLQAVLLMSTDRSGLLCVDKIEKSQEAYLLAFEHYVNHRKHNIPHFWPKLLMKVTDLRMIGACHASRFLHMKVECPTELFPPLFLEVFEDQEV

EC50 [1] [nM] | Emax [1] [%] | EC50 ([2]; Homo sapiens, Huh-7, 24 h) [nM] | EC50 [3] [nM] | Emax [3] [%] | Activity category Assay 1 THRβ (Emax) [1] | EC50 [2] [nM] | Activity category Assay 1 THRα (Emax) [3] | SMILES | Activity category Assay 3 Emax [2] | Emax ([2]; Homo sapiens, Huh-7, 24 h) [%]
< 50 | 50 to 75 | < 100 | 50 to 250 | 50 to 75 | – | – | – | CC(c1cc(Oc2c(Cl)cc(-n3nc(N)c(=O)[nH]c3=O)cc2Cl)n[nH]c1=O)C1CC(F)(F)C1 (single isomer, unassigned) [Compound 61-A, 6-amino-2-[3,5-dichloro-4-([5-[1-(3,3-difluorocyclobutyl)ethyl]-6-oxo-1H-pyridazin-3-yl]oxy)phenyl]-4H-1,2,4-tri-azine-3,5-dione] | B (Emax≥50%, and <75%) | –
50 to 250 | – | – | 1000 to 25000 | – | C (Emax<50%) | > 100 | C (Emax<50%) | CC(c1cc(Oc2c(Cl)cc(-n3nc(N)c(=O)[nH]c3=O)cc2Cl)n[nH]c1=O)C1CC(F)(F)C1 (single isomer, unassigned) [Compound 61-B, 6-amino-2-[3,5-dichloro-4-([5-[1-(3,3-difluorocyclobutyl)ethyl]-6-oxo-1H-pyridazin-3-yl]oxy)phenyl]-4H-1,2,4-tri-azine-3,5-dione] | A (Emax≥75%) | –
50 to 250 | < 50 | < 100 | 250 to 1000 | < 50 | – | – | – | C[C@H]1C[C@H](c2cc(Oc3c(Cl)cc(-n4nc(N)c(=O)[nH]c4=O)cc3Cl)n[nH]c2=O)C1 (single isomer, unassigned) [Compound 86-A, 6-Amino-2-(3,5-dichloro-4-((5-((1r,3r)-3-methylcyclobutyl)-6-oxo-1,6-dihydropyridazin-3-yl)oxy)phenyl)-1,2,4-triazine-3,5(2H,4H)-dione] | – | 50 to 75
< 50 | – | < 100 | 50 to 250 | – | C (Emax<50%) | – | C (Emax<50%) | CC(c1ccccc1)c1cc(Oc2c(Cl)cc(-n3nc(N)c(=O)[nH]c3=O)cc2Cl)n[nH]c1=O (single isomer, unassigned) [Compound 164, 6-Amino-2-(3,5-dichloro-4-((6-oxo-5-(1-phenylethyl)-1,6-dihydropyridazin-3-yl)oxy)phenyl)-1,2,4-triazine-3,5(2H,4H)-dione] | – | 50 to 75
< 50 | 50 to 75 | 100 to 1000 | < 50 | < 50 | – | – | – | CC(C)c1c[nH]c2ccc(Oc3c(Cl)cc(-n4nc(C#N)c(=O)[nH]c4=O)cc3Cl)cc12 [Compound 1, 2-[3,5-dichloro-4-[(3-isopropyl-1H-indol-5-yl)oxy]-phenyl]-3,5-dioxo-4H-1,2,4-tri-azine-6-carbonitrile] | – | > 75
50 to 250 | 50 to 75 | 100 to 1000 | 250 to 1000 | < 50 | – | – | – | CC(C)c1cc(Oc2c(Cl)cc(-c3nn(C)c(=O)[nH]c3=O)cc2Cl)n[nH]c1=O [Compound 16, 6-[3,5-dichloro-4-[(5-isopropyl-6-oxo-1H-pyridazin-3-yl)oxy]phenyl]-2-methyl-4H-1,2,4-triazine-3,5-dione] | – | < 50
< 50 | < 50 | > 100 | > 25000 | < 50 | – | – | – | CC(C)c1c[nH]c2ccc(Oc3c(Cl)cc(-n4nc(C#N)c(=O)[nH]c4=O)cc3Cl)nc12 [Compound 18] | – | > 75
< 50 | 50 to 75 | 100 to 1000 | < 50 | < 50 | – | – | – | Cc1cc(-n2nc(C#N)c(=O)[nH]c2=O)cc(C)c1Cc1ccc2[nH]cc(C(C)C)c2n1 [Compound 31, 2-[4-[(3-isopropyl-1H-pyrrolo[3,2-b]pyridin-5-yl)methyl]-3,5-dimethyl-phenyl]-3,5-dioxo-1,2,4-triazine-6-carbonitrile] | – | > 75
< 50 | – | – | 250 to 1000 | – | C (Emax<50%) | < 100 | B (Emax≥50%, and <75%) | CCC(C)c1cc(Oc2c(Cl)cc(-n3nc(N)c(=O)[nH]c3=O)cc2Cl)n[nH]c1=O (stereo not drawn) [Compound 39-A] | B (Emax≥50%, and <75%) | –
< 50 | – | – | 50 to 250 | – | B (Emax≥50%, and <75%) | < 100 | B (Emax≥50%, and <75%) | CCC(C)c1cc(Oc2c(Cl)cc(-n3nc(N)c(=O)[nH]c3=O)cc2Cl)n[nH]c1=O (stereo not drawn) [Compound 39-B] | A (Emax≥75%) | –
< 50 | 50 to 75 | < 100 | 50 to 250 | 50 to 75 | – | – | – | Nc1nn(-c2cc(Cl)c(Oc3cc(C4CCC4)c(=O)[nH]n3)c(Cl)c2)c(=O)[nH]c1=O [Compound 40, 6-amino-2-[3,5-dichloro-4-[(5-cyclobutyl-6-oxo-1H-pyridazin-3-yl)oxy]phenyl]-4H-1,2,4-triazine-3,5-dione] | – | > 75
< 50 | > 75 | < 100 | < 50 | > 75 | – | – | – | Cc1cc(-n2nc(N)c(=O)[nH]c2=O)cc(C)c1Cc1ccc(O)c(-c2ccccc2)n1 [Compound 43, 6-amino-2-[4-[(5-hydroxy-6-phenylpyridin-2-yl)-methyl]-3,5-dimethylphenyl]-4H-1,2,4-triazine-3,5-dione] | – | > 75
50 to 250 | < 50 | > 100 | 1000 to 25000 | < 50 | – | – | – | CC(C)c1c[nH]c2nnc(Oc3c(Cl)cc(-n4nc(C#N)c(=O)[nH]c4=O)cc3Cl)cc12 [Compound 52, 2-[3,5-dichloro-4-([5-isopropyl-7H-pyrrolo[2,3-c]pyridazin-3-yl]oxy)phenyl]-3,5-dioxo-4H-1,2,4-triazine-6-carbonitrile] | – | > 75
< 50 | 50 to 75 | < 100 | < 50 | < 50 | – | – | – | Cc1cc(-n2ncc(=O)[nH]c2=O)cc(C)c1Cc1ccc2[nH]cc(C(C)C)c2n1 [Compound 54, 2-[4-[(3-isopropyl-1H-pyrrolo[3,2-b]pyridine-5-yl)methyl]-3,5-dimethyl-phenyl]-1,2,4-triazine-3,5-dione] | – | > 75
< 50 | 50 to 75 | < 100 | < 50 | 50 to 75 | – | – | – | Cc1cc(-n2nc(N)c(=O)[nH]c2=O)cc(C)c1Cc1ccc2[nH]cc(C(C)C)c2n1 [Compound 55, 6-amino-2-[4-[(3-isopropyl-1H-pyrrolo[3,2-b]pyridin-5-yl)methyl]-3,5-dimethyl-phenyl]-1,2,4-triazine-3,5-dione] | – | > 75
50 to 250 | < 50 | > 100 | 1000 to 25000 | < 50 | – | – | – | Nc1nn(-c2cc(Cl)c(Oc3cc(-c4ccc5ccccc5c4)c(=O)[nH]n3)c(Cl)c2)c(=O)[nH]c1=O [Compound 67, 6-amino-2-(3,5-dichloro-4-[[5-(naphthalen-2-yl)-6-oxo-1H-pyridazin-3-yl]oxy]phenyl)-4H-1,2,4-triazine-3,5-dione] | – | > 75
